Reference: ChEMBL document CHEMBL5375995, “Discovery and Mechanistic Study of Novel Mycobacterium tuberculosis ClpP1P2 Inhibitors” (J Med Chem, 2023)
Activity calls are given as the source filed them. The calls are words filed in the database; no cut-off is given here.

Assays:
[1] = test system: ClpP1P2 (Mycobacterium tuberculosis (strain ATCC 25618 / H37Rv)), P9WPC5+P9WPC3 [M95A]; test: Inhibition of Mtb ClpP1 M95A mutant expressed in Escherichia coli BL21(DE3)
ClpP1P2 [2] = target: ClpP1P2 (Mycobacterium tuberculosis (strain ATCC 25618 / H37Rv), UniProt P9WPC3+P9WPC5, H117N); test: Inhibition of Mtb ClpP1 H117N mutant expressed in Escherichia coli BL21(DE3)
ClpP1P2 [3] = target: ClpP1P2 (Mycobacterium tuberculosis (strain ATCC 25618 / H37Rv), UniProt P9WPC3+P9WPC5, E149Q); test: Inhibition of Mtb ClpP1 E149Q mutant expressed in Escherichia coli BL21(DE3)
[4] = test system: ClpP1P2 (Mycobacterium tuberculosis (strain ATCC 25618 / H37Rv)), P9WPC5+P9WPC3 [M95Q]; test: Inhibition of Mtb ClpP1 M95Q mutant expressed in Escherichia coli BL21(DE3)
ClpP1P2 [5] = target: ClpP1P2 (Mycobacterium tuberculosis (strain ATCC 25618 / H37Rv), UniProt P9WPC3+P9WPC5, R119S); test: Inhibition of Mtb ClpP1 R119S mutant expressed in Escherichia coli BL21(DE3)
[6] = test system: ClpP1P2 (Mycobacterium tuberculosis (strain ATCC 25618 / H37Rv)), P9WPC5+P9WPC3 [M95S]; test: Inhibition of Mtb ClpP1 M95S mutant expressed in Escherichia coli BL21(DE3)
ClpP1P2 [7] = target: ClpP1P2 (Mycobacterium tuberculosis (strain ATCC 25618 / H37Rv), UniProt P9WPC3+P9WPC5, E149R); test: Inhibition of Mtb ClpP1 E149R mutant expressed in Escherichia coli BL21(DE3)
ClpP1P2 [8] = target: ClpP1P2 (Mycobacterium tuberculosis (strain ATCC 25618 / H37Rv), UniProt P9WPC3+P9WPC5, M95W); test: Inhibition of Mtb ClpP1 M95W mutant expressed in Escherichia coli BL21(DE3)
ClpP1P2 [9] = target: ClpP1P2 (Mycobacterium tuberculosis (strain ATCC 25618 / H37Rv), UniProt P9WPC3+P9WPC5, E149T); test: Inhibition of Mtb ClpP1 E149T mutant expressed in Escherichia coli BL21(DE3)
ClpP1P2 [10] = target: ClpP1P2 (Mycobacterium tuberculosis (strain ATCC 25618 / H37Rv), UniProt P9WPC3+P9WPC5, I71F); test: Inhibition of Mtb ClpP1 I71F mutant expressed in Escherichia coli BL21(DE3)
ClpP1P2 [11] = target: ClpP1P2 (Mycobacterium tuberculosis (strain ATCC 25618 / H37Rv), UniProt P9WPC3+P9WPC5, W174A); test: Inhibition of Mtb ClpP1 W174A mutant expressed in Escherichia coli BL21(DE3)
ClpP1P2 [12] = target: ClpP1P2 (Mycobacterium tuberculosis (strain ATCC 25618 / H37Rv), UniProt P9WPC3+P9WPC5, Q142H); test: Inhibition of Mtb ClpP1 Q142H mutant expressed in Escherichia coli BL21(DE3)
ClpP1P2 [13] = target: ClpP1P2 (Mycobacterium tuberculosis (strain ATCC 25618 / H37Rv), UniProt P9WPC3+P9WPC5, H117A); test: Inhibition of Mtb ClpP1 H117A mutant expressed in Escherichia coli BL21(DE3)
[14] = test system: ClpP1P2 (Mycobacterium tuberculosis (strain ATCC 25618 / H37Rv)), P9WPC5+P9WPC3 [M75L]; test: Inhibition of Mtb ClpP1 M75L mutant expressed in Escherichia coli BL21(DE3)
ClpP1P2 [15] = target: ClpP1P2 (Mycobacterium tuberculosis (strain ATCC 25618 / H37Rv), UniProt P9WPC3+P9WPC5, E149K); test: Inhibition of Mtb ClpP1 E149K mutant expressed in Escherichia coli BL21(DE3)
ClpP1P2 [16] = target: ClpP1P2 (Mycobacterium tuberculosis (strain ATCC 25618 / H37Rv), UniProt P9WPC3+P9WPC5, I146T); test: Inhibition of Mtb ClpP1 I146T mutant expressed in Escherichia coli BL21(DE3)
[17] = test system: ClpP1P2 (Mycobacterium tuberculosis (strain ATCC 25618 / H37Rv)), P9WPC5+P9WPC3 [W174F]; test: Inhibition of Mtb ClpP1 W174F mutant expressed in Escherichia coli BL21(DE3)
[18] = test system: ClpP1P2 (Mycobacterium tuberculosis (strain ATCC 25618 / H37Rv)), P9WPC5+P9WPC3 [E149L]; test: Inhibition of Mtb ClpP1 E149L mutant expressed in Escherichia coli BL21(DE3)
ClpP1P2 [19] = target: ClpP1P2 (Mycobacterium tuberculosis (strain ATCC 25618 / H37Rv), UniProt P9WPC3+P9WPC5, I146L); test: Inhibition of Mtb ClpP1 I146L mutant expressed in Escherichia coli BL21(DE3)
ClpP1P2 [20] = target: ClpP1P2 (Mycobacterium tuberculosis (strain ATCC 25618 / H37Rv), UniProt P9WPC3+P9WPC5, Q142R); test: Inhibition of Mtb ClpP1 Q142R mutant expressed in Escherichia coli BL21(DE3)
ClpP1P2 [21] = target: ClpP1P2 (Mycobacterium tuberculosis (strain ATCC 25618 / H37Rv), UniProt P9WPC3+P9WPC5, M95L); test: Inhibition of Mtb ClpP1 M95L mutant expressed in Escherichia coli BL21(DE3)
[22] = test system: ClpP1P2 (Mycobacterium tuberculosis (strain ATCC 25618 / H37Rv)), P9WPC5+P9WPC3 [I146V]; test: Inhibition of Mtb ClpP1 I146V mutant expressed in Escherichia coli BL21(DE3)
[23] = test system: ClpP1P2 (Mycobacterium tuberculosis (strain ATCC 25618 / H37Rv)), P9WPC5+P9WPC3 [R119Q]; test: Inhibition of Mtb ClpP1 R119Q mutant expressed in Escherichia coli BL21(DE3)
[24] = test system: ClpP1P2 (Mycobacterium tuberculosis (strain ATCC 25618 / H37Rv)), P9WPC5+P9WPC3 [I146M]; test: Inhibition of Mtb ClpP1 I146M mutant expressed in Escherichia coli BL21(DE3)
[25] = test system: ClpP1P2 (Mycobacterium tuberculosis (strain ATCC 25618 / H37Rv)), P9WPC5+P9WPC3 [M75F]; test: Inhibition of Mtb ClpP1 M75F mutant expressed in Escherichia coli BL21(DE3)
[26] = test system: ClpP1P2 (Mycobacterium tuberculosis (strain ATCC 25618 / H37Rv)), P9WPC5+P9WPC3 [M75A]; test: Inhibition of Mtb ClpP1 M75A mutant expressed in Escherichia coli BL21(DE3)
[27] = test system: ClpP1P2 (Mycobacterium tuberculosis (strain ATCC 25618 / H37Rv)), P9WPC5+P9WPC3 [R119E]; test: Inhibition of Mtb ClpP1 R119E mutant expressed in Escherichia coli BL21(DE3)
[28] = Selectivity index, ratio of IC50 for full-length Staphylococcus aureus ClpP complex/Escherichia coli ClpX delta N mutant (62 to 425 residues) expressed in Escherichia coli BL21(DE3) using FITC-casein as substrate to IC50 for N-terminal His6-SUMO-tagged Mtb ClpP1 (7 to 200 residues)/ClpP2 (13 to 214 residues) complex expressed in Escherichia coli BL21(DE3)
[29] = test system: ClpP1P2 (Mycobacterium tuberculosis (strain ATCC 25618 / H37Rv)), P9WPC5+P9WPC3 [I71V]; test: Inhibition of Mtb ClpP1 I71V mutant expressed in Escherichia coli BL21(DE3)
ClpP1P2 [30] = target: ClpP1P2 (Mycobacterium tuberculosis (strain ATCC 25618 / H37Rv), UniProt P9WPC3+P9WPC5, S72T); test: Inhibition of Mtb ClpP1 S72T mutant expressed in Escherichia coli BL21(DE3)
ClpP1P2 [31] = target: ClpP1P2 (Mycobacterium tuberculosis (strain ATCC 25618 / H37Rv), UniProt P9WPC3+P9WPC5, W174I); test: Inhibition of Mtb ClpP1 W174I mutant expressed in Escherichia coli BL21(DE3)

COc1cc2c(Oc3ccc4[nH]c(C)cc4c3F)ncnc2cc1OCCCN1CCCC1 [CEDIRANIB]
inhibition [1]: Active
IC50 (ClpP1P2 [2]): > 50 µM
IC50 (ClpP1P2 [3]): 6.3 µM
inhibition [4]: inactive
IC50 (ClpP1P2 [5]): 42.2 µM
inhibition [6]: inactive
IC50 (ClpP1P2 [7]): 41.8 µM
IC50 (ClpP1P2 [8]): 7.5 µM
IC50 (ClpP1P2 [9]): 7.6 µM
IC50 (ClpP1P2 [10]): 3.4 µM
IC50 (ClpP1P2 [11]): 20.2 µM
IC50 (ClpP1P2 [12]): 14.4 µM
IC50 (ClpP1P2 [13]): 4.4 µM
inhibition [14]: inactive
IC50 (ClpP1P2 [15]): > 100 µM
IC50 (ClpP1P2 [16]): 5.1 µM
inhibition [17]: inactive
inhibition [18]: inactive
IC50 (ClpP1P2 [19]): 9.7 µM
IC50 (ClpP1P2 [20]): 9.5 µM
IC50 (ClpP1P2 [21]): 23.7 µM
inhibition [22]: inactive
inhibition [23]: inactive
inhibition [24]: inactive
inhibition [25]: inactive
inhibition [26]: Active
inhibition [27]: inactive
Ratio IC50 [28]: 9.6
inhibition [29]: inactive
IC50 (ClpP1P2 [30]): > 54.5 µM
IC50 (ClpP1P2 [31]): 12.8 µM
